Measured values published in patent US10961252B2, “Quinazoline and indole compounds to treat medical disorders” (Achillion Pharmaceuticals, Inc., priority 2016, dated 2021).
Where a name gives a salt, the structure may show the parent alone.

Tested on: Normal Human Serum (NHS)
Assay: Hemolysis assay: lysis of rabbit erythrocytes (RE) by Normal Human Serum (NHS)
Assay type: cell-based
Conditions: rabbit erythrocyte, 0.5 h, Table 1, hemolysis of rabbit erythrocytes with NHS, GVB0 plus 10 mM Mg-EGTA, 37° C., read-out: IC50
Procedure: The hemolysis assay was previously described by G. Ruiz-Gomez, et al., J. Med. Chem. (2009) 52: 6042-6052. Prior to the assay, the optimum concentration of Normal Human Serum (NHS) needed to achieve 100% lysis of rabbit erythrocytes (RE) is determined by titration. In the assay, NHS (Complement Technology) is diluted in GVB^0 Buffer (0.1% gelatin, 5 mM Veronal, 145 mM NaCl, 0.025% NaN3, pH 7.3, Complement Technology) plus 10 mM Mg-EGTA and incubated with test compound at various concentrations for 15 minutes at 37° C. RE (Complement Technology) freshly suspended in GVB^0 plus 10 mM Mg-EGTA are added to a final concentration of 1×10^8 cells/mL and reactions are incubated for 30 minutes at 37° C. Positive control reactions (100% lysis) consist of GVB^0 plus 10 mM Mg-EGTA with NHS and RE but without test compound; negative control reactions (0% lysis) consist of GVB^0 plus 10 mM Mg-EGTA with RE only. Samples are centrifuged at 2000 g for 3 minutes and supernatants collected. Absorbance at 405 nm (A405) is recorded using a microplate spectrophotometer. IC50 values are calculated by nonlinear regression from the percentage of hemolysis as a function of test compound concentration.

Compared with `COc1cc2c(N)nc(N3CCN(C(=O)CC4NCCS4)CC3)nc2c(F)c1OC` (centres unmarked) [Compound 1, 1-(4-(4-Amino-8-fluoro-6,7-dimethoxyquinazolin-2-yl)piperazin-1-yl)-2-(thiazolidin-2-yl)ethan-1-one Hydrochloride], `COc1cc2c(N)nc(N3CCN(C(=O)C[C@@H]4C[C@@H]5CCC[C@@H]5N4)CC3)nc2c(F)c1OC` [Compound 2, 1-(4-(4-Amino-8-fluoro-6,7-dimethoxyquinazolin-2-yl)piperazin-1-yl)-2-((2S,3aS,6aS)-octahydrocyclopenta[b]pyrrol-2-yl)ethan-1-one Hydrochloride] is lower in IC50: greater than 10000 nM for the first, less than 1000 nM for the second. The second is the more potent here.

Compared with `COc1cc2c(N)nc(N3CCN(C(=O)C[C@@H]4C[C@@H]5CCCC[C@@H]5N4)CC3)nc2c(F)c1OC` [Compound 3, 1-(4-(4-Amino-8-fluoro-6,7-dimethoxyquinazolin-2-yl)piperazin-1-yl)-2-((2S,3aS,7aS)-octahydro-1H-indol-2-yl)ethan-1-one Hydrochloride], `CCN[C@H](CC(=O)N1CCC(c2nc(N)c3cc(OC)c(OC)c(F)c3n2)CC1)c1ccc(F)cc1` [Compound 5, (R)-1-(4-(4-Amino-8-fluoro-6,7-dimethoxyquinazolin-2-yl)piperidin-1-yl)-3-(ethylamino)-3-(4-fluorophenyl)propan-1-one] is higher in IC50: less than 1000 nM for the first, 1000 to 10000 nM for the second. The first is the more potent here.

Going from `CCN[C@H](CC(=O)N1CC=C(c2nc(N)c3cc(OC)c(OC)c(F)c3n2)CC1)c1ccc(F)cc1` [Compound 4, (R)-1-(4-(4-Amino-8-fluoro-6,7-dimethoxyquinazolin-2-yl)-3,6-dihydropyridin-1(2H)-yl)-3-(ethylamino)-3-(4-fluorophenyl)propan-1-one] to `CCN[C@H](CC(=O)N1CCC(c2nc(N)c3cc(OC)c(OC)c(F)c3n2)=C(C(=O)O)C1)c1ccc(F)cc1` [Compound 8, (R)-4-(4-Amino-8-fluoro-6,7-dimethoxyquinazolin-2-yl)-1-(3-(ethylamino)-3-(4-fluorophenyl)propanoyl)-1,2,5,6-tetrahydropyridine-3-carboxylic Acid], the IC50 rises from less than 1000 nM to greater than 10000 nM.

First: CCN[C@H](CC(=O)N1CCC(c2nc(N)c3cc(OC)c(OC)c(F)c3n2)=C(C(=O)OC)C1)c1ccc(F)cc1 [Compound 6, Methyl (R)-4-(4-amino-8-fluoro-6,7-dimethoxyquinazolin-2-yl)-1-(3-(ethylamino)-3-(4-fluorophenyl)propanoyl)-1,2,5,6-tetrahydropyridine-3-carboxylate]
Second: CCN[C@H](CC(=O)N1CCC(c2nc(N)c3cc(OC)c(OC)c(F)c3n2)C(C(=O)OC)C1)c1ccc(F)cc1 (stereo partly drawn) [Compound 7, Methyl 4-(4-amino-8-fluoro-6,7-dimethoxyquinazolin-2-yl)-1-((R)-3-(ethylamino)-3-(4-fluorophenyl)propanoyl)piperidine-3-carboxylate]
The IC50 of the first is lower: 1000 to 10000 nM for the first, greater than 10000 nM for the second.

First: CCN[C@H](CC(=O)N1CCC(c2nc(N)c3cc(OC)c(OC)c(F)c3n2)C(C(=O)O)C1)c1ccc(F)cc1 (stereo partly drawn) [Compound 9, 4-(4-Amino-8-fluoro-6,7-dimethoxyquinazolin-2-yl)-1-((R)-3-(ethylamino)-3-(4-fluorophenyl)propanoyl)piperidine-3-carboxylic acid]
Second: CCN[C@H](CC(=O)N1C(C)C=C(c2nc(N)c3cc(OC)c(OC)c(F)c3n2)CC1C)c1ccc(F)cc1 (stereo partly drawn) [Compound 10, (3R)-1-(4-(4-Amino-8-fluoro-6,7-dimethoxyquinazolin-2-yl)-2,6-dimethyl-3,6-dihydropyridin-1(2H)-yl)-3-(ethylamino)-3-(4-fluorophenyl)propan-1-one]
The IC50 of the first is higher: 1000 to 10000 nM for the first, less than 1000 nM for the second. The second is the more potent here.

Compound `CCN[C@H](CC(=O)N1CCN(c2nc(N)c3cc4c(c(F)c3n2)OC(F)(F)O4)CC1)c1ccc(F)cc1` [Compound 12, (R)-1-(4-(8-Amino-2,2,4-trifluoro-[1,3]dioxolo[4,5-g]quinazolin-6-yl)piperazin-1-yl)-3-(ethylamino)-3-(4-fluorophenyl)propan-1-one] has an IC50 of 1000 to 10000 nM.
